For this assay, the target named is T1, Prostacyclin Receptors (IP Receptors) of Human Thrombocyte Membranes (Homo sapiens, UniProt P43119).
T1 construct: Thrombocyte membranes are obtained by centrifuging 50 ml of human blood; tissue Maco Pharma, Langen (buffy coats); host or cells: human thrombocyte (platelet) membranes prepared from human blood
Kind of assay: Binding to prostacyclin receptors (IP receptors) of human thrombocyte membranes, 3H-Iloprost displacement. The note with it: 3 nM 3H-Iloprost, 60 min, room temperature. The procedure: B-1. Studies of Binding to Prostacyclin Receptors (IP Receptors) of Human Thrombocyte Membranes
Thrombocyte membranes are obtained by centrifuging 50 ml of human blood (Buffy coats with CDP Stabilizer, from Maco Pharma, Langen) for 20 min at 160×g. Remove the supernatant (platelet-rich plasma, PRP) and then centrifuge again at 2000×g for 10 min at room temperature. Resuspend the sediment in 50 mM tris(hydroxymethyl)aminomethane, which has been adjusted to a pH of 7.4 with 1 N hydrochloric acid, and store at −20° C. overnight. On the next day, centrifuge the suspension at 80 000×g and 4° C. for 30 min. Discard the supernatant. […]
For the binding test, incubate 3 nM ^3H-Iloprost (592 GBq/mmol, from AmershamBioscience) for 60 min with 300-1000 μg/ml of human thrombocyte membranes per charge (max. 0.2 ml) in the presence of the test substances at room temperature. […] After adding Ultima Gold Scintillator, quantify the radioactivity bound to the membranes using a scintillation counter. The nonspecific binding is defined as radioactivity in the presence of 1 μM Iloprost (from Cayman Chemical, Ann Arbor) and is as a rule <25% of the bound total radioactivity. The binding data (IC50 values) are determined using the program GraphPad Prism Version 3.02.

T1 sequence (P43119 whole entry): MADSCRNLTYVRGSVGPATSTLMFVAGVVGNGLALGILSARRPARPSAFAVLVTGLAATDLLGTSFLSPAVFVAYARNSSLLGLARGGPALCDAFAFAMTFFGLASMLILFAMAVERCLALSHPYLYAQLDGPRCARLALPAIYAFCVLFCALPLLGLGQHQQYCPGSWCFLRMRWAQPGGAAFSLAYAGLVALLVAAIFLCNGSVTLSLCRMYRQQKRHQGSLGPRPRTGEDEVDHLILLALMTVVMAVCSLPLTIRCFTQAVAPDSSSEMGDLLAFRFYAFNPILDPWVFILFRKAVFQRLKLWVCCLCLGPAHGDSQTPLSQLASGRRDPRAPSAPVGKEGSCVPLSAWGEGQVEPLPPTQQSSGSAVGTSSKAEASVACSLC

`COc1ccc(-c2c(-c3ccccc3)cn3ncnc(NCCCCCC(=O)O)c23)cc1` [Example 3] had an IC50 of 636 nM. In other words, the sub-micromolar range.
`COc1ccc(-c2c(-c3ccccc3)cn3ncnc(O[C@H](C)CCCCC(=O)O)c23)cc1` [Example 4, (6R)-6-{[5-(4-methoxyphenyl)-6-phenylpyrrolo[2,1-f][1,2,4]triazin-4-yl]oxy}heptanoic acid] gave an IC50 of 224 nM.

These data come from patent US20110028479A1, “SUBSTITUTED PYRROLOTRIAZINES AND THEIR USE” (BAYER SCHERING PHARMA AKTIENGESELLSCHAFT, priority 2007, published 2011).
